Experimental findings from ChEMBL document CHEMBL3879914, “Inhibitors of central nervous system vasoactive inhibitory peptide receptor 2” (2014) are described below.

Assay [1] deals with T1, Vasoactive intestinal polypeptide receptor 2 (Homo sapiens) (UniProt P41587).
T1 sequence (whole entry): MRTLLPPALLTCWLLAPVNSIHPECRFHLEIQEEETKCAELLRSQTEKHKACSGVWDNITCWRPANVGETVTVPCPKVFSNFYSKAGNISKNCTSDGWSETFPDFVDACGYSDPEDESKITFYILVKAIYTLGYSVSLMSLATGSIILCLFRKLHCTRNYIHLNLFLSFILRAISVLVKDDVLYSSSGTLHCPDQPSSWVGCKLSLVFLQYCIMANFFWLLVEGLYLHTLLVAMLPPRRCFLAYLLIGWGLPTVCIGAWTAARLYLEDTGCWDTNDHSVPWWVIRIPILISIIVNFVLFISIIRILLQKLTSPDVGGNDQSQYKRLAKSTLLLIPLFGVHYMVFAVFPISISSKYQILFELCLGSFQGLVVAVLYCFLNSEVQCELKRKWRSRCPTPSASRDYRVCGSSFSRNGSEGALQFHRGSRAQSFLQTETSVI
As to the kind of experiment: Antagonist activity at recombinant human N-terminal signal peptide/FLAG epitope-tagged Rluc8-fused VIPR2 expressed in HEK293 cells assessed as inhibition of VIP-induced human mVenus-beta-arrestin2 binding at 1 uM preincubated for 5 mins with luciferin, coelenterazine H followed by VIP addition measured after 5 mins by BRET assay relative to control. The class given is cell-based.

In assay [2] the target is T1, Vasoactive intestinal polypeptide receptor 2 (Homo sapiens). The experiment in a line: Antagonist activity at recombinant human N-terminal signal peptide/FLAG epitope-tagged VIPR2 expressed in HEK293 cells co-expressing CAMYEL assessed as inhibition of VIP-induced cAMP accumulation at 0.5 uM preincubated for 5 mins with luciferin, coelenterazine H followed by VIP addition measured after 5 mins by BRET assay relative to control. In kind it is functional, cell-based. For orientation: Cyclic AMP is a second messenger, typically raised through Gs and lowered through Gi signalling.

Assay [3] has the same target. As to the kind of experiment: Antagonist activity at recombinant human N-terminal signal peptide/FLAG epitope-tagged Rluc8-fused VIPR2 expressed in HEK293 cells assessed as inhibition of VIP-induced human mVenus-beta-arrestin2 binding at 0.5 uM preincubated for 5 mins with luciferin, coelenterazine H followed by VIP addition measured after 5 mins by BRET assay relative to control. In kind it is cell-based.

Assay [4] has the same target. The experiment in a line: Antagonist activity at recombinant human N-terminal signal peptide/FLAG epitope-tagged VIPR2 expressed in HEK293 cells co-expressing CAMYEL assessed as inhibition of VIP-induced cAMP accumulation at 1 uM preincubated for 5 mins with luciferin, coelenterazine H followed by VIP addition measured after 5 mins by BRET assay relative to control. The class given is functional, cell-based.

For assay [5] the target is unchanged. As to the kind of experiment: Antagonist activity at recombinant human N-terminal signal peptide/FLAG epitope-tagged Rluc8-fused VIPR2 expressed in HEK293 cells assessed as inhibition of VIP-induced human mVenus-beta-arrestin2 binding at 5 uM preincubated for 5 mins with luciferin, coelenterazine H followed by VIP addition measured after 5 mins by BRET assay relative to control. The class given is cell-based. On the technique in general: In BRET a luciferase serves as donor, and the signal depends on an acceptor being close.

For assay [6] the target is unchanged. As to the kind of experiment: Antagonist activity at recombinant human N-terminal signal peptide/FLAG epitope-tagged VIPR2 expressed in HEK293 cells co-expressing CAMYEL assessed as inhibition of VIP-induced cAMP accumulation at 5 uM preincubated for 5 mins with luciferin, coelenterazine H followed by VIP addition measured after 5 mins by BRET assay relative to control. In kind it is functional, cell-based.

The term inhibition denotes the drop in the measured response relative to a control, in per cent.

With `O=C(NC[C@@H](O)C[C@@H](Cc1ccccc1)C(=O)N[C@H]1c2ccccc2C[C@H]1O)C(Cl)Cl`, the inhibition was 17.4% in assay [1]; 18.4% in assay [2]; 9.5 to 19.8% in assay [3]; 18.3% in assay [4]; 20% in assay [5]; 19.6% in assay [6].

As for `O=C([C@H](Cc1ccccc1)C[C@H](O)CNS(=O)(=O)c1ccc([N+](=O)[O-])cc1)N1CCOCC1`, the inhibition was 8.9% in assay [1]; -3.8% in assay [2]; -4.3 to 0.6% in assay [3]; -1.6% in assay [4]; -1.2% in assay [5]; 2.4% in assay [6].

With `COc1ccc(S(=O)(=O)NC[C@@H](O)C[C@@H](Cc2ccccc2)C(=O)N[C@H]2c3ccccc3C[C@H]2O)cc1OC`, the inhibition was 23.2% in assay [1]; 21.1% in assay [2]; 10.5 to 30.1% in assay [3]; 20.4% in assay [4]; 32% in assay [5]; 28.2% in assay [6].

`O=C(NC[C@@H](O)C[C@@H](Cc1ccccc1)C(=O)N[C@H]1c2ccccc2C[C@H]1O)c1ccc2ccccc2c1`: the inhibition in assay [1] is 11.1%; in assay [2], 13.2%; in assay [3] it was -2.9 to 16.6%; in assay [4], 16.3%; in assay [5], 9.7%; in assay [6], 23.5%.

Turning to `O=C(NCc1ccccc1)[C@@H](Cc1ccccc1)C[C@H](O)CNS(=O)(=O)c1ccc([N+](=O)[O-])cc1`, the inhibition was -4.1% in assay [1]; -1% in assay [2]; -0.3 to 6.05% in assay [3]; 1.5% in assay [4]; 7.2% in assay [5]; 4.9% in assay [6].

As to `CCCCNC(=O)[C@H](Cc1ccccc1)C[C@H](O)CNS(=O)(=O)c1ccc([N+](=O)[O-])cc1`, the inhibition in assay [1] was 1.9%; in assay [2], 0.9%; in assay [3] it was -5.6 to 9.55%; in assay [4], 5.1%; in assay [5] it was 13.8%; in assay [6], 5.3%.

For `O=C(NC[C@@H](O)C[C@@H](Cc1ccccc1)C(=O)N[C@H]1c2ccccc2C[C@H]1O)C1CCCCCC1`, the inhibition in assay [1] is 16.4%; in assay [2], 18.4%; in assay [3], 13.8 to 24.4%; in assay [4], 17%; in assay [5] it was 10.5%; in assay [6], 17%.

For the compound `O=C(NC1CCCC1)[C@@H](Cc1ccccc1)C[C@H](O)CNS(=O)(=O)c1ccc([N+](=O)[O-])cc1`, the inhibition in assay [1] was -6.1%; in assay [2], -7.5%; in assay [3], -5.7 to 0.5%; in assay [4], -2.5%; in assay [5], 1.3%; in assay [6], -0.3%.

As to `CC(C)(C)c1ccc(C(=O)NC[C@@H](O)C[C@@H](Cc2ccccc2)C(=O)N[C@H]2c3ccccc3C[C@H]2O)cc1`, the inhibition in assay [1] is 11.3%; in assay [2], 10.7%; in assay [3] it was 15.5 to 16.2%; in assay [4], 16%; in assay [5] it was 7.8%; in assay [6], 23.2%.

As to `O=C(Cc1cccc(Cl)c1)NC[C@@H](O)C[C@@H](Cc1ccccc1)C(=O)N[C@H]1c2ccccc2C[C@H]1O`, the inhibition was 20.1% in assay [1]; 14.4% in assay [2]; 11.3 to 21.9% in assay [3]; 16% in assay [4]; 17.2% in assay [5]; 26.5% in assay [6].

With `O=C(NN1CCCCC1)[C@@H](Cc1ccccc1)C[C@H](O)CNS(=O)(=O)c1ccc([N+](=O)[O-])cc1`, the inhibition is 3.3% in assay [1]; 9.2% in assay [2]; -0.9 to 5.35% in assay [3]; 12.3% in assay [4]; 4.7% in assay [5]; 6% in assay [6].

Take `NC[C@@H](O)C[C@@H](Cc1ccccc1)C(=O)N[C@H]1c2ccccc2C[C@H]1O`: the inhibition is 1.4% in assay [1]; 11.8% in assay [2]; 3.7 to 17.4% in assay [3]; 7.4 to 15.9% in assay [4]; 19.7% in assay [5]; 7.4 to 15.2% in assay [6].

In the case of `O=C(NC[C@@H](O)C[C@@H](Cc1ccccc1)C(=O)N[C@H]1c2ccccc2C[C@H]1O)c1cccnc1`, the inhibition in assay [1] is -5.7%; in assay [2] it was 15.2%; in assay [3], -6.8 to 5.05%; in assay [4], 13.5%; in assay [5], -6.3%; in assay [6], 16.4%.

`CC1CCC(NC(=O)[C@@H](Cc2ccccc2)C[C@H](O)CNS(=O)(=O)c2ccc([N+](=O)[O-])cc2)CC1` (stereo partly specified): the inhibition in assay [1] is -0.4%; in assay [2] it was -0.7%; in assay [3], 2.15 to 5.7%; in assay [4], 9.5%; in assay [5], -0.8%; in assay [6], 5.1%.

Consider `O=C(NCc1ccccc1)[C@H](Cc1ccccc1)C[C@H](O)CNS(=O)(=O)c1ccc([N+](=O)[O-])cc1`, for which the inhibition is 4.4% in assay [1]; -1.1% in assay [2]; 1.8 to 10.7% in assay [3]; -1.3% in assay [4]; 24.2% in assay [5]; -2.9% in assay [6].

In the case of `C#CCNC(=O)[C@@H](Cc1ccccc1)C[C@H](O)CNS(=O)(=O)c1ccc([N+](=O)[O-])cc1`, the inhibition is 3.4% in assay [1]; 3.1% in assay [2]; 3.3 to 10.2% in assay [3]; 7.3% in assay [4]; 7% in assay [5]; 13.5% in assay [6].

On to `O=C(O)c1ccc(S(=O)(=O)NC[C@@H](O)C[C@@H](Cc2ccccc2)C(=O)N[C@H]2c3ccccc3C[C@H]2O)cc1`, for which the inhibition in assay [1] is -1.8%; in assay [2] it was 7.4%; in assay [3], 6.4 to 13.1%; in assay [4], 6.4%; in assay [5], 0.2%; in assay [6] it was 26%.

Take `CCN(CC)C(=O)[C@H](Cc1ccccc1)C[C@H](O)CNS(=O)(=O)c1ccc([N+](=O)[O-])cc1`: the inhibition in assay [1] is 7.9%; in assay [2], -8.1%; in assay [3] it was -5.4 to 0.7%; in assay [4], -6.1%; in assay [5], 5.7%; in assay [6] it was -4.3%.

Regarding `O=C(NC1CCCC1)[C@H](Cc1ccccc1)C[C@H](O)CNS(=O)(=O)c1ccc([N+](=O)[O-])cc1`, the inhibition is 17.1% in assay [1]; -2.1% in assay [2]; 6.95 to 17.4% in assay [3]; -4.9% in assay [4]; 9.2% in assay [5]; 4.7% in assay [6].

Regarding `CNc1ccc(S(=O)(=O)NC[C@@H](O)C[C@@H](Cc2ccccc2)C(=O)N[C@H]2c3ccccc3C[C@H]2O)cc1`, the inhibition in assay [1] is 1.1%; in assay [2] it was -0.9%; in assay [3], -1.5 to -0.8%; in assay [4] it was 2%; in assay [5] it was 4.3%; in assay [6], -7.3%.

Take `Cc1ccc(S(=O)(=O)NC[C@@H](O)C[C@@H](Cc2ccccc2)C(=O)N[C@H]2c3ccccc3C[C@H]2O)c(C)c1`: the inhibition was 20.3% in assay [1]; 14.1% in assay [2]; 2.8 to 27.6% in assay [3]; 10.9% in assay [4]; 31.8% in assay [5]; 23.3% in assay [6].
